In patent US7563805B2, “Tri-, tetra-substituted-3-aminopyrrolidine derivative” (Daiichi Pharmaceutical Co., Ltd., priority 2005, dated 2009):
Values after ≈ are worked out from the molar mass of the structure shown. Like-named read-outs stand apart in the source and are kept apart here.

Columns and labels:
E. coli NIHJ = test: antibacterial activity (MIC), standard method of Japanese Society of Chemotherapy
P. vulgaris, 08601 = test: as above
S. marscecens, 10100 = test: as above
P. aeruginosa, 32104 = test: as above
P. aeruginosa, 32121 = test: as above
S. aureus, 209P = test: as above
S. epidermidis, 56500 = test: as above
E. faecalis, ATCC 19433 = test: as above
[1] = test system: S. aureus, 87037 (LVFX-resistant MRSA); test: as above; conditions: S. aureus, 87037 (LVFX-resistant MRSA)
[2] = test system: S. pneumoniae, J24 (penicillin-intermediate resistant bacteria); test: as above
hERG K+ channel = hERG K+ channel (Homo sapiens, UniProt Q12809); test: hERG-K^+ channel blocking effect
hERG K+ channel, sequence (Q12809 whole entry): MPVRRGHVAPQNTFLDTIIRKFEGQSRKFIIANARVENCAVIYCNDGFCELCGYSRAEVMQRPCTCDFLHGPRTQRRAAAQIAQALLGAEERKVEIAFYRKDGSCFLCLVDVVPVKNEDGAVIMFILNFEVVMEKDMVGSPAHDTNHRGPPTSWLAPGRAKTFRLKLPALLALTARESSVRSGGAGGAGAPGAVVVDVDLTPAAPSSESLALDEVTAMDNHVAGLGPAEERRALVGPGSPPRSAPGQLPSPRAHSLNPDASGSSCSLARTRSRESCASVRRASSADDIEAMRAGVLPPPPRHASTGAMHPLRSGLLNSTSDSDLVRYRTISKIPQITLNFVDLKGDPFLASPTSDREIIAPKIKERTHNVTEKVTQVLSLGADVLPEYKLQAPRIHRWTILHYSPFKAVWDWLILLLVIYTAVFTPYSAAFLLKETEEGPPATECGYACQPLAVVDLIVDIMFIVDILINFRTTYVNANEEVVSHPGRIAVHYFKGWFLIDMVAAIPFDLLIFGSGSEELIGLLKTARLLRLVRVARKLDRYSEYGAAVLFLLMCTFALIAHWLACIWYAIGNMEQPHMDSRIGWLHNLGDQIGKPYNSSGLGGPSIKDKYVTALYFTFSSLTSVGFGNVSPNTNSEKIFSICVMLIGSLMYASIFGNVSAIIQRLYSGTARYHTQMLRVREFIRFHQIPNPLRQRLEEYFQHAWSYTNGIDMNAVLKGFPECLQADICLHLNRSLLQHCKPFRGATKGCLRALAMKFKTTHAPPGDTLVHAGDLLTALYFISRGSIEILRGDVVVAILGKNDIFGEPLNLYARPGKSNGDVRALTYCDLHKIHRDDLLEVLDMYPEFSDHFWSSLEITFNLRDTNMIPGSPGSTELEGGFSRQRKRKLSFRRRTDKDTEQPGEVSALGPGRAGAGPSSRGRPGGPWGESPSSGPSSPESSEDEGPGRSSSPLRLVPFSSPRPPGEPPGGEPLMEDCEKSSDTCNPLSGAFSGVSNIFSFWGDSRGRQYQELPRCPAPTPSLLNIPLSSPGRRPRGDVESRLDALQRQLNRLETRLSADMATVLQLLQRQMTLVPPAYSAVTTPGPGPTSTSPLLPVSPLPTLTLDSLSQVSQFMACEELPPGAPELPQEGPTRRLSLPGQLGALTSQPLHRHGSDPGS

Question: With `COc1c(N2CC(C)C(C)(N)C2)c(F)cc2c(=O)c(C(=O)O)cn([C@@H]3C[C@@H]3F)c12` (relative stereo) [Example 1, 7-[(3R*,4S*)-3-Amino-3,4-dimethylpyrrolidin-1-yl]-6-fluoro-1-[(1R,2S)-2-fluorocyclopropyl]-8-methoxy-1,4-dihydro-4-oxoguinoline-3-carboxylic acid] as the compound, how does the MIC (E. coli NIHJ; Escherichia coli) read?
Answer: Its MIC is 0.025 µg/mL (≈ 0.0614 µM).

Question: And the MIC (P. vulgaris, 08601; Proteus vulgaris, 08601, P. vulgaris)?
Answer: Its MIC is 0.05 µg/mL (≈ 0.123 µM).

Question: What about the MIC (S. marscecens, 10100) of the same compound?
Answer: Its MIC is 0.2 µg/mL (≈ 0.491 µM).

Question: What about the MIC (P. aeruginosa, 32104; Pseudomonas aeruginosa) of the same compound?
Answer: Its MIC is 0.39 µg/mL (≈ 0.957 µM).

Question: And the MIC (P. aeruginosa, 32121; Pseudomonas aeruginosa)?
Answer: Its MIC is 0.2 µg/mL (≈ 0.491 µM).

Question: What about the MIC (S. aureus, 209P; Staphylococcus aureus) of the same compound?
Answer: Its MIC is 0.025 µg/mL (≈ 0.0614 µM).

Question: What about the MIC (S. epidermidis, 56500; Staphylococcus epidermidis, 56500, S. epidermidis) of the same compound?
Answer: The MIC was 0.1 µg/mL (≈ 0.245 µM).

Question: What about the MIC (E. faecalis, ATCC 19433; Enterococcus faecalis, ATCC19433, E. faecalis) of the same compound?
Answer: The MIC was 0.2 µg/mL (≈ 0.491 µM).

Question: What about the MIC ([1]; Staphylococcus aureus, MRSA) of the same compound?
Answer: Its MIC is 0.78 µg/mL (≈ 1.91 µM).

Question: And the MIC ([2]; Streptococcus pneumoniae)?
Answer: Its MIC is 0.1 µg/mL (≈ 0.245 µM).

Question: Which melting point does the source give for `CCC1CN(c2c(F)cc3c(=O)c(C(=O)O)cn([C@@H]4C[C@@H]4F)c3c2OC)CC1(C)N` (relative stereo) [Example 14, 7-[(3R*,4R*)-3-Amino-4-ethyl-3-methylpyrrolidin-1-yl]-6-fluoro-1-[(1R,2S)-2-fluorocyclopropyl]-8-methoxy-1,4-dihydro-4-oxoquinoline-3-carboxylic acid] here?
Answer: Its melting point is 167 to 169 °C.

Question: Which results are given for `COc1c(N2CC(F)[C@](C)(N)C2)c(F)cc2c(=O)c(C(=O)O)cn([C@@H]3C[C@@H]3F)c12` (single isomer, unassigned) [Example 25]?
Answer: melting point: 160 to 163 °C; inhibition at 30 µM (hERG K+ channel): 2 ± 7.2%; inhibition at 100 µM (hERG K+ channel): 4.2 ± 7.9%; inhibition at 300 µM (hERG K+ channel): 17.1 ± 14.4%

Question: Which melting point does the source give for `COc1c(N2CC(F)[C@](C)(N)C2)c(F)cc2c(=O)c(C(=O)O)cn([C@@H]3C[C@@H]3F)c12` (single isomer, unassigned) [Example 26] here?
Answer: The melting point was 206 to 208 °C.

Question: With `COc1c(N2CC(C)(N)C3(CC3)C2)c(F)cc2c(=O)c(C(=O)O)cn([C@@H]3C[C@@H]3F)c12` (stereo partly drawn) [Example 10, 7-(7-Amino-7-methyl-5-azaspiro[2.4]heptan-5-yl)-6-fluoro-1-[(1R,2S)-2-fluorocyclopropyl]-8-methoxy-1,4-dihydro-4-oxoguinoline-3-carboxylic acid] as the compound, how does the MIC (E. coli NIHJ; E. coli NIHJ) read?
Answer: Its MIC is 0.025 µg/mL (≈ 0.0596 µM).

Question: And the MIC (P. vulgaris, 08601; P. vulgaris)?
Answer: The MIC was 0.05 µg/mL (≈ 0.119 µM).

Question: And the MIC (S. marscecens, 10100)?
Answer: The MIC was 0.2 µg/mL (≈ 0.477 µM).

Question: And the MIC (P. aeruginosa, 32104; P. aeruginosa)?
Answer: The MIC was 0.39 µg/mL (≈ 0.93 µM).

Question: And the MIC (P. aeruginosa, 32121; P. aeruginosa)?
Answer: Its MIC is 0.2 µg/mL (≈ 0.477 µM).

Question: What about the MIC (S. aureus, 209P) of the same compound?
Answer: The MIC was 0.05 µg/mL (≈ 0.119 µM).

Question: And the MIC (S. epidermidis, 56500; S. epidermidis)?
Answer: Its MIC is 0.2 µg/mL (≈ 0.477 µM).

Question: And the MIC (E. faecalis, ATCC 19433; E. faecalis)?
Answer: The MIC was 0.78 µg/mL (≈ 1.86 µM).

Question: And the MIC [1]?
Answer: The MIC was 1.56 µg/mL (≈ 3.72 µM).

Question: What about the MIC [2] of the same compound?
Answer: Its MIC is 0.39 µg/mL (≈ 0.93 µM).

Question: Which melting point does the source give for `COc1c(N2CC(OC)C(C)(N)C2)c(F)cc2c(=O)c(C(=O)O)cn([C@@H]3C[C@@H]3F)c12` (stereo partly drawn) [Example 18, 7-(3-Amino-4-methoxy-3-methylpyrrolidine-1-yl)-6-fluoro-1-[(1R,2S)-2-fluorocyclopropyl]-8-methoxy-1,4-dihydro-4-oxoquinoline-3-carboxylic acid] here?
Answer: Its melting point is 150 to 151 °C.

Question: Which melting point does the source give for `COc1c(N2CC(OC)C(C)(N)C2)c(F)cc2c(=O)c(C(=O)O)cn([C@@H]3C[C@@H]3F)c12` (stereo partly drawn) [Example 19, 7-(3-Amino-4-methoxy-3-methylpyrrolidine-1-yl)-6-fluoro-1-[(1R,2S)-2-fluorocyclopropyl]-8-methoxy-1,4-dihydro-4-oxoquinoline-3-carboxylic acid] here?
Answer: Its melting point is 162 to 163 °C.
